Data published in ChEMBL document CHEMBL5252519, “Design strategies, structure activity relationship and mechanistic insights for purines as kinase inhibitors” (Eur J Med Chem, 2016).
Values belong to the compound of their own block, whether it stands above or below them.

Assays:
[1] = Antiproliferative activity against HUVEC cells assessed as cell growth inhibition measured after 72 hrs by crystal violet staining based analysis; assay type: toxicity; conditions: human
[2] = molecular target: T1, Phosphatidylinositol 4,5-bisphosphate 3-kinase catalytic subunit delta isoform (Homo sapiens, UniProt O00329); assay: Inhibition of human PI3K-delta using PIP2 as substrate in presence of gamma[32P]ATP
T1 sequence (O00329 whole entry): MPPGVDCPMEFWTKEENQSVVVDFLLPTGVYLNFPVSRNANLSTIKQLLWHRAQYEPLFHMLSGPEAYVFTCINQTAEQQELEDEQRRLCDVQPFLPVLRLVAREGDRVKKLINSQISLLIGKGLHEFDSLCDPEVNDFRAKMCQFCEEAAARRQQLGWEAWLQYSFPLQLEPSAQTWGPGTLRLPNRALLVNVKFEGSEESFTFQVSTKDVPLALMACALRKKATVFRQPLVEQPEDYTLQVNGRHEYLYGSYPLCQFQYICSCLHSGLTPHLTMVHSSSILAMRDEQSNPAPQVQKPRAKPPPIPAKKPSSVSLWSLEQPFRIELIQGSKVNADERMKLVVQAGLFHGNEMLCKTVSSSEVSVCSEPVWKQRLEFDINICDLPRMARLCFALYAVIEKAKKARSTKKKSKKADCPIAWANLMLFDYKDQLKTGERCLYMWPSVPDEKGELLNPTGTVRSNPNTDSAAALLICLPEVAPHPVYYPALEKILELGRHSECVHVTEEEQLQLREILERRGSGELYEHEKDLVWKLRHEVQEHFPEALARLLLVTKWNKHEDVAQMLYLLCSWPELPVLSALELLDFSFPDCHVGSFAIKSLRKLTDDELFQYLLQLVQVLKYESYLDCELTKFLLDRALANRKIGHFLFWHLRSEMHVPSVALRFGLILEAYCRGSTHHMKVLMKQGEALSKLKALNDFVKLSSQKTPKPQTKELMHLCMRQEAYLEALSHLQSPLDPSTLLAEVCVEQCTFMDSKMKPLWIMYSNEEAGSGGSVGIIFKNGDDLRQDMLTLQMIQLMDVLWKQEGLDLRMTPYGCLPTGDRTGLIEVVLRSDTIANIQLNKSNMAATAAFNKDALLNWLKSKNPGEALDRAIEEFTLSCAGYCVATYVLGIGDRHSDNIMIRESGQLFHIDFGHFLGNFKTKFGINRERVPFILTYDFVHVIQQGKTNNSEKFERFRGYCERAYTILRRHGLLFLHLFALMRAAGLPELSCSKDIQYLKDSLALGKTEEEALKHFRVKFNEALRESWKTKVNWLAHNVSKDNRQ

[3] = system: HMEC; assay: Inhibition of cell migration in HMECs at 10 uM measured after 16 hrs by fluorescence based assay; assay type: functional; conditions: Homo sapiens
[4] = molecular target: T1, Phosphatidylinositol 4,5-bisphosphate 3-kinase catalytic subunit delta isoform; assay: Inhibition of PI3K-delta (unknown origin)
[5] = molecular target: CDK9/Cyclin T (Homo sapiens, UniProt P50750); assay: Inhibition of CDK9/Cyclin T (unknown origin) using (YSPTSPS)3 peptide as substrate incubated for 30 mins in presence of gamma[33P]ATP by digital imaging analysis; assay type: protein-complex assay
[6] = molecular target: Cyclin-dependent kinase 2/cyclin E (Homo sapiens, UniProt P24941); assay: Inhibition of CDK2/Cyclin E (unknown origin) using histone as substrate incubated for 30 mins in presence of gamma[33P]ATP by digital imaging analysis; assay type: protein-complex assay
[7] = system: MCF7; assay: Cytotoxicity against human MCF7 cells incubated for 48 hrs by SRB assay; assay type: functional, cell-based; conditions: MCF7, 48 h
[8] = molecular target: Serine/threonine-protein kinase mTOR (Homo sapiens, UniProt P42345); assay: Inhibition of mTOR (unknown origin)
[9] = molecular target: Cyclin-dependent kinase 2/cyclin A (Homo sapiens, UniProt P24941); assay: Inhibition of human CDK2/cyclinA using histone H1 as substrate incubated for 30 mins in presence of gamma[32P]ATP by phosphoimaging analysis; assay type: protein-complex assay
[10] = molecular target: Phosphatidylinositol 4,5-bisphosphate 3-kinase catalytic subunit alpha isoform (Homo sapiens, UniProt P42336); assay: Inhibition of PI3K-p110alpha (unknown origin) incubated for 30 mins by fluorescence polarization assay
[11] = molecular target: Tyrosine-protein kinase SYK (Homo sapiens, UniProt P43405); assay: Inhibition of SYK (unknown origin) using biotinylated EDPDYEWPSA as substrate incubated for 30 mins in presence of 33P-ATP by Scintillation Proximity Assay
[12] = molecular target: Janus Kinase (JAK) (Homo sapiens, UniProt P52333+P23458+O60674+P29597); assay: Inhibition of JAK (unknown origin); assay type: protein assay

Sequence of CDK9/Cyclin T (O60563 whole entry): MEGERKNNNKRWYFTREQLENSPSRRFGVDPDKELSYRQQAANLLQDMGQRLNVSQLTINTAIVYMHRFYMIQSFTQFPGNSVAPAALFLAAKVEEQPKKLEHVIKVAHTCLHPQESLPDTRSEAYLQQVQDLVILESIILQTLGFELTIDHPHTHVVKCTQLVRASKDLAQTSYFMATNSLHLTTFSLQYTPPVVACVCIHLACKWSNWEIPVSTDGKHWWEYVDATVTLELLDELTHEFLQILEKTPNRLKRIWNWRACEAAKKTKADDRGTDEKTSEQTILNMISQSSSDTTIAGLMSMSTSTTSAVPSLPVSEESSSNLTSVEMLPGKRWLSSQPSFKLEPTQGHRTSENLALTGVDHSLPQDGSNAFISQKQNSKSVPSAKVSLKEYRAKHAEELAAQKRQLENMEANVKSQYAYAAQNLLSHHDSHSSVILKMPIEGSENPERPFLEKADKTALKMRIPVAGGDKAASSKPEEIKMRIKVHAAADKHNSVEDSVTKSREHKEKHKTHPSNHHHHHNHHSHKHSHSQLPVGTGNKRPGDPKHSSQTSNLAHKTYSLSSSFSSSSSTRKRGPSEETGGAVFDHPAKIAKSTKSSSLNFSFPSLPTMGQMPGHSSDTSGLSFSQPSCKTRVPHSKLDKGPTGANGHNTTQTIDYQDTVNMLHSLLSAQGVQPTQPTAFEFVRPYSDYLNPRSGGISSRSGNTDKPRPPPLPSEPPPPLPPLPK
Sequence of CDK9/Cyclin T (P50750 whole entry): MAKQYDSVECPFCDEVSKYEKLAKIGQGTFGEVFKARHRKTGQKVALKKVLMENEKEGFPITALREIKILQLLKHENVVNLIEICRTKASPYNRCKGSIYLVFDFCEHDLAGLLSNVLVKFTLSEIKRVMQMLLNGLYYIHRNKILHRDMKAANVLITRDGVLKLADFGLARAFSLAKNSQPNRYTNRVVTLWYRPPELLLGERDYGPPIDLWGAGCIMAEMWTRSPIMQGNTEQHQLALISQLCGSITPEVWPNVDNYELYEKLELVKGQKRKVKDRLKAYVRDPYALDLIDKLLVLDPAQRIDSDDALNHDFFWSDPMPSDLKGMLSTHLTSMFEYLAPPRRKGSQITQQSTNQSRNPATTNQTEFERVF
Sequence of CDK9/Cyclin T (O60583 whole entry, further chain): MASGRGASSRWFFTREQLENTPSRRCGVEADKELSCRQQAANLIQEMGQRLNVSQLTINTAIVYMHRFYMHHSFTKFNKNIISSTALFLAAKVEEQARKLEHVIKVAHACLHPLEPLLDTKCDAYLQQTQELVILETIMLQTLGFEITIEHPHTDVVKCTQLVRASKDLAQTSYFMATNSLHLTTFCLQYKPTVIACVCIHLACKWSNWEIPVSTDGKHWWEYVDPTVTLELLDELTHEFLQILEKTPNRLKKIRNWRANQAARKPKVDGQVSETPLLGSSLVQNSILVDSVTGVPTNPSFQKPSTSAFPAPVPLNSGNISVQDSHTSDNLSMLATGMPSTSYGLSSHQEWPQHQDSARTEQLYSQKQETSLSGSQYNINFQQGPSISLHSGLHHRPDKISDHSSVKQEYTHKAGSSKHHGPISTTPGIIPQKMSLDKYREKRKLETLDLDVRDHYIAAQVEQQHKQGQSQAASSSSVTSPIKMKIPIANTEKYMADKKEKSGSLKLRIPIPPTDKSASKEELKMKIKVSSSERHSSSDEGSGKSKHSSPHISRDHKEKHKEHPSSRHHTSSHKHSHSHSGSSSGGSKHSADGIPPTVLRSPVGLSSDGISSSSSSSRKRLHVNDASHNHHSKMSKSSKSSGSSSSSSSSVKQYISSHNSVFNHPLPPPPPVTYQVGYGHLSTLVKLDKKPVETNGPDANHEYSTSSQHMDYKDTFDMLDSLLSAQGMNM
Sequence of Phosphatidylinositol 4,5-bisphosphate 3-kinase catalytic subunit alpha isoform (P42336 whole entry, canonical isoform): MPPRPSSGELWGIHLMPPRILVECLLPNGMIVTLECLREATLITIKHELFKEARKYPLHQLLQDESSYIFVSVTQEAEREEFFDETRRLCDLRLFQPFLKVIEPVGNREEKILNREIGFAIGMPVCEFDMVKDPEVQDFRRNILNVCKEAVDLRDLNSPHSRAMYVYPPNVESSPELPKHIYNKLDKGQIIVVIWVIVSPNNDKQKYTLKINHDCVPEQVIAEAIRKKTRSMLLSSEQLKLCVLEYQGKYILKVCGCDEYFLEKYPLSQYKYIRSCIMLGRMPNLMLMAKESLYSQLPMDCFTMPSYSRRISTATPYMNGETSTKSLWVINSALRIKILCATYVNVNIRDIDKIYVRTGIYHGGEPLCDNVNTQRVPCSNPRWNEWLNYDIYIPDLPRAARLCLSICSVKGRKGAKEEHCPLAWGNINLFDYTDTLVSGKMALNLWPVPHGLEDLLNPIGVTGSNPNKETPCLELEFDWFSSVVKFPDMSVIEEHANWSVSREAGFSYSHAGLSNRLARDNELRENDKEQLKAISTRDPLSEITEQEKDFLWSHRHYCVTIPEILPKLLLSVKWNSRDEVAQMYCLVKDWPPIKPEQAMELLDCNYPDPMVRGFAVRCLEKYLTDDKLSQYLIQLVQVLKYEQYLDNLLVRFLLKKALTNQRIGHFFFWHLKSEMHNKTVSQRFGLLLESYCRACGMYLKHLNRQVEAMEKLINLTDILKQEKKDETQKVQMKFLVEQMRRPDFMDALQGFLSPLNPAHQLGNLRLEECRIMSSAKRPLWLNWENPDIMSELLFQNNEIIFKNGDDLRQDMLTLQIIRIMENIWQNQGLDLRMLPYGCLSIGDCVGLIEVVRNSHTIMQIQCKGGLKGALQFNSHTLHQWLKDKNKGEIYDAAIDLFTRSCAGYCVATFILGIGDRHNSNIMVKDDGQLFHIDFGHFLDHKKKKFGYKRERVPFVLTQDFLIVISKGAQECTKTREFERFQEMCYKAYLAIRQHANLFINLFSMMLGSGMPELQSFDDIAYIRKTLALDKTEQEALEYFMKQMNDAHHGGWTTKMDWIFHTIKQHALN

Structure (SMILES): CC[C@@H](CO)Nc1nc(NCc2ccccc2O)c2ncn(C(C)C)c2n1
EC50 at 72 h [1]: 1590 nM

IC50 [2]: 12 nM
Structure (SMILES): CCC(Nc1ncnc2[nH]cnc12)c1nc2cccc(C)c2c(=O)n1-c1cc(F)cc(F)c1 (centres undefined)

Structure (SMILES): CC[C@H](CO)Nc1nc(NCc2cccc(OC)c2O)c2ncn(C(C)C)c2n1
EC50 at 72 h [1]: 7120 nM
inhibition at 10 µM [3]: 54%

IC50 [4]: < 30 nM
Structure (SMILES): OCCn1cnc2c(-c3cn[nH]c3)nc(N3CCOCC3)nc21

IC50 [5]: 8 nM
IC50 [6]: 20 nM
Structure (SMILES): CC(C)n1cnc2c(NCc3cc(F)ccc3O)nc(NC3CCC(N)CC3)nc21 (centres undefined)

IC50 [5]: 9 nM
IC50 [6]: 20 nM
Structure (SMILES): COc1cccc(CNc2nc(NC3CCC(N)CC3)nc3c2ncn3C(C)C)c1O (centres undefined)

IC50 [2]: 26 nM
Structure (SMILES): CCC(Nc1ncnc2[nH]cnc12)c1nc2cccc(Cl)c2c(=O)n1-c1c(F)cccc1F (centres undefined)

Structure (SMILES): CC(=O)N1N=C(c2ccc(Nc3ncnc4c3c(C)nn4-c3ccccc3)cc2)CC1c1ccc(Cl)cc1 (centres undefined)
IC50 [7]: 14900 nM

IC50 [8]: 2.4 nM
Structure (SMILES): O=C(Nc1ccc(-c2nc(C3=CCOCC3)c3cnn(CC(F)(F)F)c3n2)cc1)Nc1cccnc1

Structure (SMILES): CC(C)[C@H](CO)Nc1nc(Nc2cccc(Cl)c2)c2ncn(C(C)C)c2n1 [PURVALANOLA]
IC50 [9]: < 50 nM

IC50 [10]: < 10 nM
Structure (SMILES): Cc1nc(N)ncc1-c1nc(N2CCOCC2)c2nc(C(C)(C)C)n(CCO)c2n1

IC50 [11]: 5 nM
Structure (SMILES): CC(C)(C)Nc1nc(Nc2ccc(CC(=O)O)cc2)nc2[nH]cnc12

Structure (SMILES): Cc1nn(-c2ccccc2)c2ncn(N)c(=O)c12
IC50 [7]: 89200 nM

IC50 [9]: < 50 nM
Structure (SMILES): CC(C)[C@H](CO)Nc1nc(Nc2ccc(Cl)c(N)c2)c2ncn(C(C)C)c2n1

IC50 [10]: < 10 nM
Structure (SMILES): CC(C)(C)c1nc2c(N3CCOCC3)nc(-c3cccc4[nH]ccc34)nc2n1CCO

IC50 [5]: 7 nM
Structure (SMILES): COc1cccc(CNc2nc(NC3CCCCC3N)nc3c2ncn3C(C)C)c1O (centres undefined)

IC50 [2]: 45 nM
Structure (SMILES): CC[C@H](Nc1ncnc2[nH]cnc12)c1nc2cccc(Cl)c2c(=O)n1-c1cc(F)cc(F)c1

Structure (SMILES): CC(C)C(CO)Nc1nc(Nc2cccc(Cl)c2)c2ncn(C(C)C)c2n1 (centres undefined)
IC50 [9]: < 50 nM

IC50 [12]: < 1 nM
Structure (SMILES): NC(=O)C1C2C=CC(C2)C1Nc1nc(Nc2cccc(S(N)(=O)=O)c2)nc2[nH]cnc12 (centres undefined)

IC50 [4]: < 30 nM
Structure (SMILES): CS(=O)(=O)N1CCN(CCn2cnc3c(-n4c(C(F)F)nc5ccccc54)nc(N4CCOCC4)nc32)CC1

IC50 [12]: < 1 nM
Structure (SMILES): COc1cc(Nc2nc(NC3C4C=CC(C4)C3C(N)=O)c3nc[nH]c3n2)cc(OC)c1OC (centres undefined)

IC50 [11]: 5 nM
Structure (SMILES): C/C=N/Nc1ccc(Nc2nc(NCC)c3nc[nH]c3n2)cc1

IC50 [11]: 5 nM
Structure (SMILES): CC(C)Nc1nc(Nc2ccc(S(=O)(=O)N(C)C)cc2)nc2[nH]cnc12

Structure (SMILES): Cc1nn(-c2ccccc2)c2ncnc(Nc3ccc(C(=O)N4CCOCC4)cc3)c12
IC50 [7]: 14900 nM

IC50 [12]: < 1 nM
Structure (SMILES): NC(=O)[C@@H]1[C@H](Nc2nc(Nc3cccc(S(N)(=O)=O)c3)nc3[nH]cnc23)[C@H]2C=C[C@@H]1C2

Structure (SMILES): CC[C@@H](CO)Nc1nc(NCc2cccc(OC)c2O)c2ncn(C(C)C)c2n1
EC50 at 72 h [1]: 2850 nM
inhibition at 10 µM [3]: 14%

IC50 [5]: 6 nM
Structure (SMILES): CCC(CO)Nc1nc(NCc2cc(C)ccc2O)c2ncn(C(C)C)c2n1 (centres undefined)

IC50 [12]: < 1 nM
Structure (SMILES): c1nc2c(NC3CC4CCC3C4)nc(Nc3ccc(N4CCCCC4)cc3)nc2[nH]1 (centres undefined)

IC50 [12]: < 1 nM
Structure (SMILES): CC(C)Oc1cccc(Nc2nc(NC3C4C=CC(C4)C3C(N)=O)c3nc[nH]c3n2)c1 (centres undefined)

IC50 [9]: < 50 nM
Structure (SMILES): CC(C)[C@H](CO)Nc1nc(Nc2ccc(Cl)c(C(=O)O)c2)c2ncn(C(C)C)c2n1
